Test results taken from US20060084694A1, “Ligand-dependant activation of Nur77 and uses thereof” (priority 2004, published 2006).
“Also recorded” adds a separate entry of the source.

How the values were obtained:
Nur77 [1] = target: T1, Nur77 (Homo sapiens, UniProt P22736); assay: Nur77 subcellular localization and level (immunostaining, Western blot of cytosolic and nuclear extracts); details: for Nur77 translocation, Western blot of cytosolic and nuclear extracts: Panc-28, 10 or 20 μM, 12 hr (FIG. 4B); for Nur77 localization by immunostaining: Panc-28 cells, 10 μM, 6 hr (FIG. 4A)
T1 sequence (P22736 whole entry, the tested form may be a part): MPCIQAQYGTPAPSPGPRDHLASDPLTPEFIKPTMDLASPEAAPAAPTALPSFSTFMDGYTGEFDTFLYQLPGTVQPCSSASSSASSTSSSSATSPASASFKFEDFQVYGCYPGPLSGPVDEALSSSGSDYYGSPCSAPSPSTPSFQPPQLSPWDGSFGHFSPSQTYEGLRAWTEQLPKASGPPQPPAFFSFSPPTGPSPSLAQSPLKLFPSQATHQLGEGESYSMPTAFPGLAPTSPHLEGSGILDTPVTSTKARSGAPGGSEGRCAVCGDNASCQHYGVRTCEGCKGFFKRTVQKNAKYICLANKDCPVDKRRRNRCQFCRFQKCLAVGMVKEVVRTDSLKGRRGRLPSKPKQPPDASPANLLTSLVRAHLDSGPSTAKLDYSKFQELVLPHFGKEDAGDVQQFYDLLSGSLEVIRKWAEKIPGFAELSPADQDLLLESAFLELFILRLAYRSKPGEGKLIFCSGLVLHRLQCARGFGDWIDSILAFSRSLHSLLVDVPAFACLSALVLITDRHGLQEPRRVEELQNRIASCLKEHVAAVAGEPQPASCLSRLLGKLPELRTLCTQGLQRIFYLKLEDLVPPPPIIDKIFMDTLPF
Description: The different cancer cell lines were cultured under standardized conditions. Panc-28 cells were grown in DMEM:Ham's F-12 media containing 2.5% charcoal stripped fetal bovine serum, and cells were treated with DMSO and different concentrations of test compounds as indicated. […] For all other assays, cytosolic, nuclear fractions, or whole cell lysates were obtained at various time points, analyzed by Western blot analysis, and bands were quantitated as previously described (Qin, et al., 2004; Abdelrahim, et al., 2002). Immunocytochemical analysis was determined using Nur77 antibodies as previously reported (Abdelrahim, et al., 2002).
Sp1 is a nuclear protein and was used as a control to ensure efficient separation of the two extracts and Sp1 was identified only in the nuclear fraction.

[2] = target: T2, GAL4-Nur77 (full length) chimera (Homo sapiens, UniProt P22736); assay: GAL4-Nur77 (full length)/pGAL4 luciferase transactivation in Panc-28 cells; format: cell-based; details: for luciferase activity, GAL4-Nur77 (full length)/pGAL4: Panc-28 cells, 10 or 20 μM (FIG. 1B); for Nur77 activation, structure dependence (isomers and ring-substituted analogs): FIG. 1D, analogs data not shown
T2 construct: Panc-28 cells transfected with a GAL4-Nur77 (full length) chimera; expressed in transfected cells; host or cells: Panc-28
T2 sequence (P22736 whole entry, change not shown, the tested form may be a part): as the sequence (P22736 whole entry, the tested form may be a part) above
From the text: Structure-dependent activation of Nur77 by a series of eleven C-substituted DIMs was investigated in Panc-28 cells transfected with a GAL4-Nur77 (full length) chimera and a reporter construct containing five GAL4 response elements linked to a luciferase reporter gene (pGAL4).
(§1) Transfection assays were essentially carried out as previously described using Lipofectamine Plus reagent (Invitrogen, Carlsbad, Calif.) and luciferase activities were normalized to β-galactosidase activity. […] Results are expressed as means±SE for at least three replicate determinations for each treatment group.

PPARγ = target: T3, PPARγ (Homo sapiens, UniProt P37231); details: Qin, et al., 2004, Chintharlapalli; cited from earlier work
T3 sequence (P37231 1-505): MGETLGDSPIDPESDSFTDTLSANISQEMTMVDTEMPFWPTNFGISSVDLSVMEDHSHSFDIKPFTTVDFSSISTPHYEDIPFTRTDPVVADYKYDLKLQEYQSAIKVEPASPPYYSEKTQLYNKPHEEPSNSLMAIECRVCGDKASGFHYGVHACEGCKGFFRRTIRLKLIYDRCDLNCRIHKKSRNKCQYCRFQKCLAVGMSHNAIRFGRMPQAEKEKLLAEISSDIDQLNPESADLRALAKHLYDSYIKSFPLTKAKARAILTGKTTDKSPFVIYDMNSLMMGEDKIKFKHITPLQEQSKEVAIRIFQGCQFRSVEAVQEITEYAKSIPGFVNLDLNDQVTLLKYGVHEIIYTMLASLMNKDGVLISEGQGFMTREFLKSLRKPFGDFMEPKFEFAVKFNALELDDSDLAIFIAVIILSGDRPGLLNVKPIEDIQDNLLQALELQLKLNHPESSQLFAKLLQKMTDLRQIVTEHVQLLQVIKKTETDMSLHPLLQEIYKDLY

TRAIL mRNA = TRAIL mRNA in Panc-28 cells (RT-PCR); format: cell-based; details: Panc-28 cells (FIG. 6B)
Description: cDNA was prepared from the Panc-28 cell line using a combination of oligodeoxythymidylic acid (Oligo d(T)16), and dNTP mix (Applied Biosystems) and Superscript II (Invitrogen). Each PCR was carried out in triplicate in a 20-μl volume using Sybr Green Mastermix (Applied Biosystems) for 15 min at 95° C. for initial denaturing, followed by 40 cycles of 95° C. for 30 s and 60° C. for 1 min in the ABI Prism 7700 Sequence Detection System. The ABI Dissociation Curves software was used following a brief thermal protocol (95° C. 15 s and 60° C. 20 s, followed by a slow ramp to 95° C.) to control for multiple species in each PCR amplification. Values for each gene were normalized to expression levels of TBP. The sequences of the primers used for RT-PCR were as follows: TRAIL forward, 5′-CGTGTACTTTACCAACGAGCTGA-3′, reverse, 5′-ACGGAGTTGCCACTTGACTTG-3′; and TBP forward, 5′-TGCACAGGAGCCAAGAGTGAA-3′, reverse, 5′-CACATCACAGCTCCCCACCA-3′.

GAL4-Nur77(E/F) = target: T4, GAL4-Nur77(E/F) (Homo sapiens, UniProt P22736); assay: GAL4-Nur77(E/F)/pGAL4 transactivation in Panc-28 cells; format: cell-based; details: 5-15 μM (FIG. 2A)
T4 construct: a chimeric GAL4-Nur77(E/F) construct containing only the E/F domain of Nur77; expressed in transfected cells; host or cells: Panc-28
T4 sequence (P22736 360-595 limits assumed): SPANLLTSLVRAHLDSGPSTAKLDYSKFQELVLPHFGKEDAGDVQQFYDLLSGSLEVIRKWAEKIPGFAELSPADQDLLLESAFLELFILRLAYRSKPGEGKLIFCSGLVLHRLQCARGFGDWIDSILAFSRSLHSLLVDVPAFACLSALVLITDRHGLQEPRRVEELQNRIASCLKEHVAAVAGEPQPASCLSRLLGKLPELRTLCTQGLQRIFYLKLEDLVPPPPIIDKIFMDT
From the text: as §1
(§2) (FIG. 2A). […] The structural specificity of Nur77 antagonists was further investigated using meta-hydroxy (DIM-C-mPhOH) and ortho-hydroxy (DIM-C-oPhOH) analogs. […] Thus, activation of Nur77 by C-DIMs was E/F domain-dependent and Nur77 activation was inhibited by DIM-C-pPhOH; moreover, both activation and inhibition of Nur77-mediated transactivation was dependent on the structure of the C-DIM compounds.

GAL4-Nur77 = target: T5, GAL4-Nur77 (Homo sapiens, UniProt P22736); assay: Nur77 antagonist assay: cotreatment with Nur77 agonists, GAL4-Nur77/pGAL4 in Panc-28 cells; format: cell-based; details: for Nur77 antagonist activity (inhibition of agonist-induced transactivation): Panc-28, cotreatment with Nur77 agonists, 10 or 20 μM (FIG. 2C-2E)
T5 construct: expressed in transfected cells; host or cells: Panc-28
T5 sequence (P22736 whole entry, the tested form may be a part): as the sequence (P22736 whole entry, the tested form may be a part) above
From the text: as §1, §2

[3] = target: VP-Nur77 (ligand binding domain) / GAL4-coactivator chimeras (Homo sapiens, UniProt P22736); details: Panc-28, VP-Nur77
Sequence of VP-Nur77 (ligand binding domain) / GAL4-coactivator chimeras (P22736 360-595 limits assumed, change not shown): as the sequence (P22736 360-595 limits assumed) above
Description: Panc-28 cells were plated in 12-well plates at 1×10^5 cells/well in DME-F12 media supplemented with 2.5% charcoal-stripped FBS. After growth for 16 hr, various amounts of DNA, i.e. Gal4Luc (0.4 μg), β-gal (0.04 μg), VP-Nur77(E/F) (0.04 μg), pM SRC1 (0.04 μg), pMSRC2 (0.04 μg), pMSRC3 (0.04 μg), pMDRIP205 (0.04 μg) and pMCARM-1 (0.04 μg) were transfected by Lipofectamine (Invitrogen) according to the manufacturer's protocol. After 5 hr of transfection, the transfection mix was replaced with complete media containing either vehicle (DMSO) or the indicated ligand for 20-22 hr. Cells were then lysed with 100 ml of 1X reporter lysis buffer, and 30 μl of cell extract were used for luciferase and β-Gal assays. Lumicount was used to quantitate luciferase and β-Gal activities, and the luciferase activities were normalized to β-Gal activity.
Ligand-induced Nur77-coactivator interactions were determined using a construct (pGAL4) containing 5 GAL4 response elements. Coactivators used in this study include SRC-1, SRC-2 (TIFII), SRC-3 (AIB1), PGC-1, TRAP220 and CARM-1. A GAL4-repressor (SMRT) chimera was also included in the assay.

Panc-28 cell xenografts = assay: Tumor growth in athymic nude mice bearing Panc-28 cell xenografts; format: in vivo, athymic nude mice (BALB/c)
Description: Male athymic nude mice (BALB/c, ages 8-12 weeks) were purchased from Harlan (Indianapolis, Ind.). The mice were housed and maintained in laminar flow cabinets under specific pathogen-free conditions. Panc-28 cells were harvested from subconfluent cultures by trypsinization and washed. Panc-28 cells (2×10^6) were injected subcutaneously into each mouse on both flanks using a 30-gauge needle. The tumors were allowed to grow for 11 days until tumors were palpable. Mice were then randomized into two groups of seven mice per group and dosed by oral gavage with either corn oil or DIM-C-pPhOCH3 every second day. The volume of corn oil was 75 μl, and the dose of DIM-C-pPhOCH3 was 25 mg/kg/day. The mice were weighed, and tumor areas were also measured ever other day. Final body and tumor weights were determined at the end of the dosing regiment; and selected tissues were further examined by routine H & E staining and immunohistochemical analysis for apoptosis using the TUNEL assay.

Panc-28 cells [4] = assay: Annexin V-Alexa-488 / propidium iodide apoptosis assay in Panc-28 cells; format: cell-based; details: for annexin V-stained cells: Panc-28, 10 and 20 μM, 8 and 12 hr (FIG. 5C)
Description: Detection of phosphatidylserine on the outside of the cell membrane, a unique and early marker for apoptosis, was performed using a commercial kit (Vybrant Apoptosis Assay Kit #2; Molecular Probes, Eugene, Oreg.). […] Binding of annexin V-Alexa-488 conjugate and propidium iodide (PI) was performed according to the manufacturer's instructions. After binding and washing, cells were observed under phase contrast and epifluorescent illumination using a 495-nm excitation filter and a 520-nm absorption filter for annexin V-Alexa 488 and a 546-nm excitation filter and a 590-nm absorption filter for PI. Healthy cells were unstained by either dye; cells in early stages of apoptosis were stained only by annexin V, while dead cells were stained by annexin V and PI. The assay was repeated on three separate Panc-28 cell preparations.

Panc-28 cells [5] = assay: Cell survival of Panc-28 cells; format: cell-based
Description: The different cancer cell lines were cultured under standardized conditions. Panc-28 cells were grown in DMEM:Ham's F-12 media containing 2.5% charcoal stripped fetal bovine serum, and cells were treated with DMSO and different concentrations of test compounds as indicated. For longer term cell survival studies, the media was changed every second day, and values were presented for a 4 day experiment.

TRAIL = TRAIL protein expression in Panc-28 cells (Western blot); format: cell-based
From the text: In thymocytes, there is evidence that Nur77-induced apoptosis is linked to transcriptional activation (uang, et al., 1999), and microarray studies in thymocytes undergoing Nur77-dependent apoptosis identified several apoptosis-related genes including fasL and TRAIL (Rajpal, et al., 2003). […] (FIG. 6B). Since TRAIL activates the extrinsic apoptosis pathway and activation of caspase 8, the effect of a caspase 8 inhibitor (Z-IETD-FMK) and the pan-caspase inhibitor (Z-VAD-FMK) was also investigated on induction of PARP cleavage by Nur77 agonists (FIG. 6C).

PARP cleavage = PARP cleavage in Panc-28 cells (Western blot); format: cell-based; details: for effect of leptomycin B on PARP cleavage induced by Nur77 agonists: Panc-28, LMB 1 ng/ml cotreatment (FIG. 5E)
Description: The different cancer cell lines were cultured under standardized conditions. Panc-28 cells were grown in DMEM:Ham's F-12 media containing 2.5% charcoal stripped fetal bovine serum, and cells were treated with DMSO and different concentrations of test compounds as indicated. For longer term cell survival studies, the media was changed every second day, and values were presented for a 4 day experiment. For all other assays, cytosolic, nuclear fractions, or whole cell lysates were obtained at various time points, analyzed by Western blot analysis, and bands were quantitated as previously described (Qin, et al., 2004; Abdelrahim, et al., 2002). Immunocytochemical analysis was determined using Nur77 antibodies as previously reported (Abdelrahim, et al., 2002).

Nur77 [6] = target: T1, Nur77; assay: Nur response element (NurRE) luciferase transactivation in Panc-28 cells; format: cell-based; set-up: endogenous in cells; host or cells: Panc-28; details: 10 or 20 μM (FIG. 1C)
[7] = Panc-28, cotreatment with DIM-C-pPhOH3 or DIM-C-Ph (FIG. 6E)

## c1ccc(C(c2c[nH]c3ccccc23)c2c[nH]c3ccccc23)cc1 [DIM-C-Ph]
Nur77 [1]
  Nur77 translocation, Western blot of cytosolic and nuclear extracts: translocation from the nucleus is not observed
  Nur77 localization by immunostaining: Nur77 remained in the nucleus
[2]
  luciferase activity, GAL4-Nur77 (full length)/pGAL4: activated luciferase activity
PPARγ
  PPARγ activation: PPARγ-inactive
TRAIL mRNA
  TRAIL mRNA levels: induced TRAIL mRNA levels
GAL4-Nur77(E/F)
  luciferase activity, GAL4-Nur77(E/F)/pGAL4: induced luciferase activity

## COc1cccc(C(c2c[nH]c3ccccc23)c2c[nH]c3ccccc23)c1 [DIM-C-mPhOCH3]
[2]
  Nur77 activation, structure dependence (isomers and ring-substituted analogs): Only the para-substituted compound was active

## Oc1cccc(C(c2c[nH]c3ccccc23)c2c[nH]c3ccccc23)c1 [DIM-C-mPhOH]
GAL4-Nur77
  Nur77 antagonist activity (inhibition of agonist-induced transactivation): did not inhibit

## COc1ccccc1C(c1c[nH]c2ccccc12)c1c[nH]c2ccccc12 [DIM-C-oPhOCH3]
[2]
  Nur77 activation, structure dependence (isomers and ring-substituted analogs): Only the para-substituted compound was active

## Oc1ccccc1C(c1c[nH]c2ccccc12)c1c[nH]c2ccccc12 [DIM-C-oPhOH]
GAL4-Nur77
  Nur77 antagonist activity (inhibition of agonist-induced transactivation): did not exhibit Nur77 antagonist activity
GAL4-Nur77; high doses (20 μM) of both Nur77 agonists and DIM-C-oPhOH
  toxicity in cotreated cells: toxic

## FC(F)(F)c1ccc(C(c2c[nH]c3ccccc23)c2c[nH]c3ccccc23)cc1 [DIM-C-pPhCF3]
Nur77 [1]
  Nur77 translocation, Western blot of cytosolic and nuclear extracts: translocation from the nucleus is not observed
  Nur77 localization by immunostaining: Nur77 remained in the nucleus
[2]
  luciferase activity, GAL4-Nur77 (full length)/pGAL4: activated luciferase activity
PPARγ
  PPARγ activation: also activates PPARγ
GAL4-Nur77(E/F)
  luciferase activity, GAL4-Nur77(E/F)/pGAL4: induced luciferase activity
[3]
  transactivation with GAL4-CARM-1: slightly activated

## COc1ccc(C(c2c[nH]c3ccccc23)c2c[nH]c3ccccc23)cc1 [DIM-C-pPhOCH3]
Nur77 [1]
  Nur77 translocation, Western blot of cytosolic and nuclear extracts: translocation from the nucleus is not observed
  Nur77 localization by immunostaining: Nur77 remained in the nucleus
[2]
  Nur77 activation, structure dependence (isomers and ring-substituted analogs): active
  luciferase activity, GAL4-Nur77 (full length)/pGAL4: activated luciferase activity
PPARγ
  PPARγ activation: PPARγ-inactive
TRAIL mRNA
  TRAIL mRNA levels: induced TRAIL mRNA levels
Panc-28 cell xenografts; 25 mg/kg/day vs corn oil
  animal weight gain and organ weights: comparable
Panc-28 cell xenografts; 25 mg/kg/day, oral gavage (FIG. 7B)
  tumor weights: parallel decrease in tumor weights
Panc-28 cell xenografts; 25 mg/kg/day, oral gavage every second day (FIG. 7A)
  tumor growth (area): significantly inhibited tumor growth
Panc-28 cell xenografts; treated vs corn oil
  brain regions by H & E staining: did not indicate any differences
Panc-28 cells [4]
  annexin V-stained cells: time- and dose-dependent increase
Panc-28 cells [4]; Panc-28, 6 hr
  PI staining after 6 hr: minimal PI staining
  annexin V-stained cells after 6 hr: significantly increased
Panc-28 cells [4]; Panc-28, 12 hr
  PI staining after 12 hr: PI staining was increased
GAL4-Nur77(E/F)
  luciferase activity, GAL4-Nur77(E/F)/pGAL4: induced luciferase activity
[3]
  transactivation with GAL4-CARM-1: slightly activated
  transactivation with GAL4-SRC-3: induced transactivation

## Oc1ccc(C(c2c[nH]c3ccccc23)c2c[nH]c3ccccc23)cc1 [DIM-C-pPhOH]
Panc-28 cells [5]; Panc-28 (FIG. 5A)
  effect on cell survival: did not affect cell survival
Panc-28 cells [5]; Panc-28, 4 and 6 days
  cell proliferation at longer time points: slightly inhibited cell proliferation
Panc-28 cells [5]; Panc-28, concentrations as high as 20 μM
  induction of cell death: induction of cell death was not observed
TRAIL; [7]
  inhibition of TRAIL protein expression induced by Nur77 agonists: inhibited induction
TRAIL; Panc-28 cells (FIG. 6A)
  TRAIL protein expression: did not induce TRAIL
PARP cleavage; [7]
  inhibition of PARP cleavage induced by Nur77 agonists: inhibited induction
PARP cleavage; Panc-28 cells (FIG. 5B)
  cleavage of PARP: did not induce this response
GAL4-Nur77
  Nur77 antagonist activity (inhibition of agonist-induced transactivation): antagonizes activation of Nur77 by all three C-DIM compounds
[2]
  luciferase activity, GAL4-Nur77 (full length)/pGAL4: inactive; also recorded: did not induce activity
Nur77 [6]
  activation of NurRE construct: inactive
GAL4-Nur77(E/F)
  luciferase activity, GAL4-Nur77(E/F)/pGAL4: no response was observed

## CC[C@@]1(O)C(=O)OCc2c1cc1n(c2=O)Cc2cc3ccccc3nc2-1 [camptothecin, reference compound]
Panc-28 cells [4]
  annexin V-stained cells: comparable

## CCC(=C/[C@H](C)C/C=C/C(C)=C/[C@@H](C)C(=O)[C@@H](C)[C@H](O)[C@@H](C)C/C(C)=C/C(=O)O)/C=C/[C@@H]1OC(=O)C=C[C@@H]1C [leptomycin B, Leptomycin B]
PARP cleavage; Panc-28, 1 ng/ml (FIG. 5E)
  PARP cleavage, LMB alone: slightly induced PARP cleavage
PARP cleavage
  effect of leptomycin B on PARP cleavage induced by Nur77 agonists: not affected
PARP cleavage; listed as LMB
  effect of leptomycin B on PARP cleavage induced by Nur77 agonists: enhanced PARP cleavage
